Test results published in patent US20210069082A1, “SPIROKETALS AND USES THEREOF” (Memorial Sloan-Kettering Cancer Center, priority 2017, published 2021).
Read-outs that look alike come from different tables or passages of the source.

Key:
[1] = system: rat mesangial cells; test: Inhibition of high glucose-induced ROS production in rat mesangial cells (DCFH-DA fluorescence); assay type: cell-based; settings: for Concentration required for complete inhibition (ROS production reduced to normal levels): high glucose-induced ROS, rat mesangial cells; for IC50: 3 h, DCFH-DA 50 μM, mean of three experiments, s.d. of log IC50 in brackets; for Antioxidant activity against hyperglycemia-induced ROS generation (in words): concomitant treatment with compound plus high glucose for 3 h, DCFDA assay
Procedure: The inhibitory effects of the pyrrolomorpholine spiroketals on high glucose-induced oxidative stress were evaluated in rat mesangial cells (RMC). The rat mesangial cells, obtained from the American Type Culture Collection (CRL-2573), were cultured at 37° C. in Dulbecco's modified Eagle's medium (DMEM) containing 5.6 mM glucose (normal glucose), 10% fetal calf serum (FCS), nonessential amino acids, penicillin/streptomycin under a humidified atmosphere of 95% air and 5% CO2. Rat mesangial cells were seeded in 96-well plates approximately 24 hours before the start of all experiments. For more details on the antioxidant activity assays, see, e.g., Wang et al. Free Radical Biol. Med. 1999, 27, 612-616; Magalhães et al. Anal. Chim. Acta. 2008, 613, 1-19; Peng et al. Org. Lett. 2010, 12, 4932-4935; Hung et al. Am. J. Nephrol. 2009, 29, 192-202.
For each experiment, rat mesangial cells were incubated with pyrrolomorpholine spiroketal compound (0.01, 0.03, 0.1, 0.3, 1, 3, 10, 30, 100, 200 μM) or 1 mM N-acetyl cysteine (NAC, positive control) in the presence of either 5.6 mM (normal glucose, NG) or 30 mM (high glucose, HG) D-glucose for 3 h. RMC were then incubated with 50 μM dichloro-dihydro-fluorescein diacetate (DCFH-DA) for 45 min, and intracellular production of ROS was detected by 2′,7′-dichlorofluorescein (DCF) fluorescence (485 nm excitation, 530 emission) as measured by a microplate reader (SpectraMax M5/M5, Molecular Devices). Values are expressed as percentage of ROS inhibition, where fluorescence from untreated cells under normal glucose conditions was set at 0% and untreated cells under high glucose conditions was set at 100%.

[2] = system: rat mesangial cells; test: DCFDA assay of ROS levels upon exogenous H2O2 treatment; assay type: cell-based; settings: 200 μM H2O2, rat mesangial cells
Procedure: Dichlorofluorescin diacetate (DCFDA) assay measured ROS levels upon treatment with 200 μM H2O2.
DCFDA assay measured ROS levels upon treatment with 200 μM H2O2.

[3] = system: rat mesangial cells; settings: cited from earlier work; for Antioxidant activity as reported (in words): high glucose-induced ROS, rat mesangial cells, literature
[4] = Chemical reactivity towards reactive oxygen and nitrogen species; assay type: physicochemical; settings: equimolar concentrations
[5] = system: mesangial cells; settings: through inhibition of NADPH oxidase, literature; cited from earlier work
[6] = cyclic voltametry, Aponick and coworkers; cited from earlier work
[7] = Rattus norvegicus, Mesangial cell, compound 0-200 μM, high (30 mM) glucose, N-acetyl-cysteine at 1 mM, ***p ≤ 0.001, read-out: Maximum % ROS Inhibition

With OC[C@H]1O[C@@]2(Cc3ccccc3CO2)C[C@@H]1O (single isomer, unassigned) [desformylbenzene 7] the inhibition [1, 7] was 100%, the “Concentration required for complete inhibition (ROS production reduced to normal levels)” value [1] was 5 µM and the “Block of the direct effect of exogenous H2O2 on ROS levels” value [2] was “does not block”.
For O=CC[C@H](O)[C@H](O)CO [2-deoxy-D-ribose], the IC50 ([1]; Rattus norvegicus, Mesangial cell, compound 0-200 μM, high (30 mM) glucose) was > 200 µM.
For O=Cc1ccc2n1C[C@@]1(OC2)O[C@H](CO)[C@@H](O)[C@@H]1O.c1ccccc1 [Acortatarin B, acortatarin B], the “Antioxidant activity as reported (in words)” value [3] is given as “significantly attenuating high glucose-induced generation of ROS”.
For O=Cc1ccc2n1CC1(CC(O)C(CO)O1)OC2 [L-acortatarin A], the “Antioxidant activity against hyperglycemia-induced ROS generation (in words)” value [1] was “inactive”.
With CC(=O)N[C@@H](CS)C(=O)O [N-acetyl-cysteine] the inhibition at 1000 µM [1, 7] was 100%.
With O=Cc1ccc2n1C[C@]1(C[C@H](O)[C@@H](CO)O1)OC2 [acortatarin A (1), acortatarin A] the “Reactivity to equimolar H2O2, OH radical and peroxynitrite” value [4] was “unreactive”, the IC50 ([1]; compound 0-200 μM, high (30 mM) glucose) was 4.9 µM and the “Maximum % ROS Inhibition” value ([1]; compound 0-200 μM, high (30 mM) glucose, N-acetyl-cysteine at 1 mM, ***p ≤ 0.001) was 100%***. For the same compound, the “Antioxidant activity against hyperglycemia-induced ROS generation (in words)” value [1] was “complete inhibition of ROS induction at higher concentrations”, the “Concentration required for complete inhibition (ROS production reduced to normal levels)” value [1] was 20 µM and the “Antioxidant activity as reported (in words)” value [3] was “complete inhibition of ROS induction at higher concentrations”. The “Antioxidant activity as reported (in words)” value ([3]; listed as Acortatarin A) was “significantly attenuating high glucose-induced generation of ROS”, the IC50 ([3]; rat mesangial cell model, intracellular ROS levels, read-out: IC50 against hyperglycemia-induced oxidative stress, as recently reported) was 4.9 µM and the “Block of the direct effect of exogenous H2O2 on ROS levels” value [2] was “does not block”. The “Effect on high glucose-induced extracellular matrix production” value [5] was “prevent”, the First oxidation potential [6] was “+1.74 V” and the Second oxidation potential [6] was 1.90 V.
For O=Cc1cccc2c1C[C@]1(C[C@H](O)[C@@H](CO)O1)OC2 [formylbenzene 8, (2S,4S,5R)-4-hydroxy-5-(hydroxymethyl)-4,5-dihydro-3H-spiro[furan-2,3′-isochromane]-5′-carbaldehyde], the inhibition [1, 7] was 100%.
